From PMC8598068, “Flagellin lysine methyltransferase FliB catalyzes a [4Fe-4S] mediated methyl transfer reaction” (PLoS Pathogens, 2021)

Assays:
ftFliB (FleBt-FliB) [1] = target: T1, ftFliB (FleBt-FliB) (Salmonella enterica, UniProt Q56106); assay: biochemical
ftFliB (FleBt-FliB) [2] = target: T1, ftFliB (FleBt-FliB); assay: UV-vis, EPR, […] Mössbauer, iron and sulfur content; format: binding; design: N-terminal His6 and Yersinia enterocolitica FleB residues 54-332 (FleBt) solubility tag kept, fused to FliB; E. coli BL21(DE3); ~76 kDa; about 14-mer; settings: anaerobically reconstituted protein; CX4CX3CC motif
[3] = target: the molecule itself; assay: SEC-MALS; TSK-GEL BioAssist G4SWXL column, buffer A, 0.5 mL/min; MALS with RI and UV 280 nm detectors

Molecule: C[S+](CC[C@H](N)C(=O)O)C[C@H]1O[C@@H](n2cnc3c(N)ncnc32)[C@H](O)[C@@H]1O (stereo partly drawn) [SAM, S-adenosylmethionine]
- Kd (ftFliB (FleBt-FliB) [1]): 10.5 ± 3.41 µM

Molecule: [S]12[Fe]3[S]4[Fe]1[S]1[Fe]2[S]3[Fe]41 [[4Fe-4S] cluster]
- UV-vis, EPR, 57Fe Mössbauer, iron and sulfur content (ftFliB (FleBt-FliB) [2]): indicating the presence of one [4Fe-4S] cluster in FliB

B1: FleBt-FliB fusion protein (flagellin lysine methyltransferase FliB fused to the C-terminus of truncated FleB) (enzyme)
chain: MKEITVTEPAFVTRFSCSGSACRDHCCKGWKITLDKTTVKKYLASKDTTIRTIAQDHIILLKKNNSHWGEIKLPSALGNCPYLDEDRLCRVQKTLGAKALSHTCSSFPRAHHTYKNEVRNSLSLACPEVTSRILNDPDAMALSEKTIIQQTFNTAPLFPAQQKLLNLFCLSLINHANSSTEAALYALIKFVMYAQKFAKIDDAALGELEQVYAALLEQLQTGVLAQELMNIAPDSKVKTSLVLQMQDYFRSLPLNRGSVILDHYIQCLLRVLTAEEGVSMEQKVSDIESSLARCLQANEQQKNWAFRNLILYKIWENNFPNQPNVDPLRALYIIVAEYAFIKLLTAASVHERGRIEWDDVTNIVYSFHSRSQHNSEVAKNFHRHIETVRTGDDLSMIHLLT
notes: also called ftFliB; source: E. coli BL21 (DE3), purified (HisTrap HP, SEC); copies: 14
- stoichiometry N [3]: ~14 subunits per oligomer
